Test results as given in patent publication US5773412A, “Use of peptides for altering αV β3 -mediated binding” (priority 1995, dated 1998).
“Also recorded” adds a separate entry of the source. Where a SMILES comes first, the peptide text is derived from it. Bridges are numbered along the chain shown (N, C = ends). [ ]: non-standard residue; d: D form. Tic = O=C(O)[C@@H]1Cc2ccccc2CN1; Pen = CC(C)(S)[C@H](N)C(=O)O; Mpa = O=C(O)CCS

Experiments:
[1] = Parathyroid hormone-induced hypercalcemia in mice; assay type: in vivo; conditions: parathyroidectomized Swiss-Webster mice, 4 hr peptide infusion, 0.2 mg PTH/kg i.v.; in words
Excerpt: Parathyroid hormone (PTH) activates osteoclasts, which are involved in bone resorption. Associated with the increased osteoclast activity is an increase in serum calcium. The PTH-induced hypercalcemia assay measures the level of serum calcium, which is an indication of bone resorption in a subject (Fischer et al., Endocrinology 132:1411-1413 (1993), which is incorporated herein by reference).
Swiss-Webster mice, which had been parathyroidectomized two weeks prior to beginning the assay, were obtained from Taconic Lab Animals and Services (Germantown N.Y.). Femoral vein catheters (PE-50 fused with PE10 polyethylene tubing; Becton Dickinson; Parsippany, N.J.) were installed in the mice, flushed and locked with heparinized saline (1:10), sutured to adjacent muscle and internalized within the inguinal space of the incision before closing the incision with wound clips. […]
The experiment was initiated by feeding the mice a calcium-deficient diet overnight, then injecting the mice the following morning with a bolus of 0.2 mg PTH/kg (hPTH 1-34; Bachem; Torrance Calif.), intravenously. […] Various doses of a peptide or vehicle were infused into an animal for 4 hr, then ionized serum calcium again was measured. […] Serum calcium measurements were expressed as the difference between the value 30 min before the PTH pulse and 4 hr after peptide infusion was started. […]

αv β3 receptor = biological target: T1, αv β3 receptor (Homo sapiens, UniProt P05106+P06756); experiment: αvβ3 competitive ELISA; assay type: binding; conditions: IC50 in αvβ3 ELISA / JY cells versus αvβ5 and α5β1 ELISAs; in words
T1 construct: The αv β3 receptor was purified from octylglucopyranoside-extracted human placenta; from tissue; host or cells: human placenta
Description: Peptide binding to purified human αv β5 and αv β3, which are VnR's, and to α5 β1 which is a FnR, was determined using competitive ELISA assays as described below.
Peptide binding to purified αv β3 receptor was determined by using a competitive ELISA, in which αv β3 receptor was immobilized and the binding of solubilized VN, in the presence of various concentrations of peptide analogue, was detected using a monoclonal mouse IgG anti-VN antibody and a labelled anti-mouse IgG conjugate.
96 well microtiter plates were coated overnight at RT with 100 μl/well of αv β3 receptor (0.5 μg/ml in 1X TBS, 4 mM octylglucoside, 1 mM CaCl2). The wells were blocked with 200 μl/well of 1% BSA in 1X TBS, 1 mM CaCl2 for at least 30 min. The plates were washed 2× with 1X TBS, 1 mM CaCl2. 50 μl peptide in 1X TBS, 1 mM CaCl2, 0.05% TWEEN 20 (polyoxyethylenesorbitan monolaurate) was added in 10-fold serial dilutions. 50 μl of Vn in the same buffer then was added to each well.
The plates were incubated for 3 hr at RT, then washed 3× with 1X TBS, 0.05% TWEEN 20 (polyoxyethylenesorbitan monolaurate). 100 μl of 8E6 (Telios) diluted to 1:6000 in 1X TBS, 0.05% TWEEN 20 (polyoxyethylenesorbitan monolaurate) was added to the wells and the plates were incubated for 1 hr at RT. Plates were washed 3× with 1X TBS, 0.05% TWEEN 20 (polyoxyethylenesorbitan monolaurate). Affinity purified goat anti-mouse IgG conjugated to horseradish peroxidase (100μl/well; BioRad; Hercules Calif.) was added to each well and incubated for 1 hr at RT. Plates were washed 3× with 1X TBS, 0.05% TWEEN 20 (polyoxyethylenesorbitan monolaurate). 100 μl/well of substrate mixture (10 mg O-phenylenediamine in 25 ml 0.1M citrate-phosphate buffer, pH 5.0, 6 μl 30% H2 O2) was added to the plates and allowed to develop. The development process was stopped by adding 50 μl to 4N H2 SO4 to each well. The plates were read at 490 nm and the data analyzed by four parameter fit.

[2] = tested on: osteoclasts; αv β3 integrin receptor; experiment: Series of assays of Example II (summary of potency and selectivity, FIG. 2); conditions: in words
[3] = Half-life of peptide in serum; assay type: in vivo; conditions: in words
Excerpt: Increased stability of a disulfide bonded peptide of the invention also can be conferred by incorporating a hydrophobic amino acid residue such as phenylalanine at position X1 or X8 or both X1 and X8 in an RGDNTic (SEQ ID NO: 31) or RGDDV (SEQ ID NO: 1) pharmacophore as disclosed herein. The presence of such a residue can stabilize the disulfide bond against enzymatic degradation (see Bauer et al., Life Sciences 31:1133-1140 (1982)). […] In addition, the half-life of a peptide in a subject can be determined, for example, by high performance liquid chromatography (HPLC) of serum samples collected from the subject at various times following administration of the peptide. One skilled in the art would know how to select appropriate elution buffers for HPLC based on the physico-chemical properties of a particular peptide.

osteoclasts = conditions: in vitro; Sato et al., EP 437,367; cited from earlier work
[4] = in vivo; Fisher et al.; cited from earlier work
αv β3 integrin receptor = conditions: Choi et al. 1994; cited from earlier work

In the case of `CC(C)[C@@H]1NC(=O)[C@H](CC(=O)O)NC(=O)[C@H](CC(=O)O)NC(=O)CNC(=O)[C@H](CCCNC(=N)N)NC(=O)CCSSC[C@@H](C(N)=O)NC1=O` [compound 191] ([Mpa]RGDDVC-NH2; disulfide 1-7), the “PTH-induced rise in serum ionized calcium” value [1] is reported as “decreased the PTH-induced rise in serum ionized calcium in a dose responsive manner”.

With `CC(=O)N[C@H]1CSSC(C)(C)[C@@H](C(N)=O)NC(=O)[C@@H]2CCCN2C(=O)[C@H](CC(N)=O)NC(=O)[C@H](CC(=O)O)NC(=O)CNC(=O)[C@H](CCCNC(=N)N)NC1=O` [compound 228] (Ac-CRGDNP[Pen]-NH2; disulfide 1-7) the “receptor selectivity for αv β3 compared to αv β5 and α5 β1” value (shortened to “receptor selectivity for αv β3”) (αv β3 receptor) was “particularly receptor selective”.

With `CC[C@H](C)[C@@H]1NC(=O)[C@@H](NC(=O)CN)C(C)(C)SSC[C@@H](C(=O)N[C@@H](C)C(=O)O)NC(=O)[C@H](CC(C)C)NC(=O)[C@H](CC(=O)O)NC(=O)[C@H](CC(=O)O)NC(=O)CNC(=O)[C@H](CCCNC(=N)N)NC(=O)[C@H](C)NC1=O` [compound 448] (H-G[Pen]IARGDDLCA-OH; disulfide 2-10) the “receptor selectivity for αv β3” value (αv β3 receptor) was “particularly receptor selective”.

In the case of `CC(=O)N[C@H]1CSSC[C@@H](C(N)=O)NC(=O)[C@@H]2Cc3ccccc3CN2C(=O)[C@H](CO)NC(=O)[C@H](CC(=O)O)NC(=O)CNC(=O)[C@H](CCCNC(=N)N)NC1=O` [compound 812, Ac-CRGDS(Tic)C--NH2] (Ac-CRGDS[Tic]C-NH2; disulfide 1-7), the “potency (active at a relatively low concentration)” value [2] is reported as “particularly potent” and the “activity (FIG. 2)” value ([2]; minimally essential elements) is reported as “demonstrate activity”.

For `CC(C)[C@@H]1NC(=O)[C@H](CC(=O)O)NC(=O)[C@H](CC(=O)O)NC(=O)CNC(=O)[C@H](CCCNC(=N)N)NC(=O)[C@H](C)NC(=O)[C@H](C)NC(=O)[C@@H](NC(=O)CN)C(C)(C)SSC[C@@H](C(=O)N[C@@H](C)C(N)=O)NC1=O` [compound 814] (H-G[Pen]AARGDDVCA-NH2; disulfide 2-10), the “receptor selectivity for αv β3” value (αv β3 receptor) was “receptor selective for αv β3; also recorded: particularly receptor selective”.

For `CC(=O)N[C@@H]1C(=O)N[C@@H](Cc2ccccc2)C(=O)N[C@@H](C)C(=O)N[C@@H](CCCNC(=N)N)C(=O)NCC(=O)N[C@@H](CC(=O)O)C(=O)N[C@@H](CC(N)=O)C(=O)N2CCC[C@H]2C(=O)N[C@H](C(N)=O)CSSC1(C)C` [peptide 214] (Ac-[Pen]FARGDNPC-NH2; disulfide 1-9), the “potency (active at a relatively low concentration)” value [2] was “particularly potent”.

In the case of `CC(=O)N[C@@H](Cc1ccccc1)C(=O)N[C@H]1CSSC[C@@H](C(N)=O)NC(=O)[C@H](Cc2ccccc2)NC(=O)[C@H]([C@@H](C)O)NC(=O)[C@H](CC(=O)O)NC(=O)CNC(=O)[C@H](CCCNC(=N)N)NC1=O` [peptide 220] (Ac-FCRGDTFC-NH2; disulfide 2-8), the half-life in serum [3] is reported as “relatively long half-life in serum”.

In the case of Echistatin, the “inhibition of bone resorption” value (osteoclasts) is given as “inhibits bone resorption in vitro” and the “inhibition of bone resorption” value [4] is given as “inhibits bone resorption”.

For G(Pen)GRGDSPCA, the “inhibition of neointimal hyperplasia” value (αv β3 integrin receptor) is given as “can inhibit neointimal hyperplasia”.
